This note sets out measurements from patent US8835426B2, “Cyclic urea and carbamate inhibitors of 11β-hydroxysteroid dehydrogenase 1” (Vitae Pharmaceuticals, Inc., priority 2007, dated 2014).

A value given as a limit tells only on which side of the number the result lay.

In test [1] the target is T1, purified 11β-HSD1 (recombinant, expressed in E. coli) (Homo sapiens, UniProt P28845).
T1 construct: made in house; host or cells: E. coli
In words: Inhibition of purified 11β-HSD1, Scintillation Proximity Assay. It is filed as biochemical. Particulars: recombinant enzyme, 3H cortisone, NADPH, room temperature. As to the method:
(§1) The inhibition of purified 11β-HSD1 by compounds of Formula I was measured as follows using a Scintillation Proximity Assay. All reactions were carried out at room temperature in 96 well flexible Microbeta reaction plates. The assay begins by adding 1 microliter of a 0.1 mM solution of a compound of Formula I in DMSO previously diluted in half-log increments (8 points) starting at 1 micromolar final concentration. To this dot was added 50 microliters of substrate solution (50 mM HEPES, pH 7.4, 100 mM KCl, 5 mM NaCl, 2 mM MgCl2 containing […] of ^3H cortisone, 1 mM NADPH). After a 10 minute incubation, 50 microliters of enzyme solution containing 20 nM recombinant 11β-HSD1 (expressed in E. coli, and affinity purified) was added, The reaction was incubated for 90 minutes, and stopped by adding 50 microliters of SPA bead mix (18-β-glycyrrhetinic acid, 10 micromolar final, 5 mg/ml protein A coated YSi SPA beads, and 1-microgram/ml alpha-cortisol antibody (East Coast Biologics). The plate shaken for 120 minutes, and the radioactivity corresponding to ^3H cortisol was measured on a Wallac Microbeta.
(In general: In a scintillation proximity assay essentially only radioactivity close to the scintillant gives light.)

In the next test the target is microsomal 11β-HSD1 (Homo sapiens, UniProt P28845). The test can be described thus: Inhibition of microsomal 11β-HSD1, Scintillation Proximity Assay. The class given is biochemical. The settings on record: microsomal enzyme, same manner as purified enzyme assay. The method, then: as §1
Chain of microsomal 11β-HSD1 (P28845 whole entry): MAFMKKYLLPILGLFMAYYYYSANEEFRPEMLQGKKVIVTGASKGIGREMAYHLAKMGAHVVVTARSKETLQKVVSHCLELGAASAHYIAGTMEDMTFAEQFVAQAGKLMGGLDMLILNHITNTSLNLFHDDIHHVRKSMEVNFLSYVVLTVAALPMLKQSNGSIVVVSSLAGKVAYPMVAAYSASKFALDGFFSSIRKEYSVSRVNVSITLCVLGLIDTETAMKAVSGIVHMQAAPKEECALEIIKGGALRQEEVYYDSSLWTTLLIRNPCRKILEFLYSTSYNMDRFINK
The inhibition of microsomal 11β-HSD1 was carried out in the same manner.

Test [2] deals with T2, 11β-HSD1 in whole cells (omental adipocytes) (Homo sapiens, UniProt P28845).
T2 construct: host or cells: omental adipocytes differentiated from preadipocytes
T2 sequence (P28845 whole entry): as above
The test can be described thus: Inhibition of 11β-HSD1 in whole cells (omental adipocytes), cortisone to cortisol conversion, SPA. It is filed as cell-based. The settings on record: 100 nM [3H] cortisone, 37 degrees C. The method, then: The inhibition of 11β-HSD1 by compounds of Formula I in whole cells was measured as follows. Omental adipocytes cultured in 96-well plates were purchased from Zen-Bio, Inc. and used at least two weeks after differentiation from precursor preadipocytes started in medium supplemented with adipogenic and lipogenic hormones (human insulin, dexamethasone, isobutylmethylxanthine and PPAR-gamma agonist). The cells were maintained in full adipocyte medium (DMEM/Ham's F-12 (1:1, v/v), HEPES pH 7.4, fetal bovine serum, penicillin, streptomycin and Amphotericin B, supplied by Zen-Bio, Inc.) at 37 degrees C., 5% CO2 and transferred into serum-free, phenol red free medium for overnight incubation. The assay was performed in a total volume of 200 microliters. The cells were pre-incubated with serum-free, phenol red free medium containing 0.1% (v/v) of DMSO and various concentrations of compounds of Formula I at least 1 h before [^3H] cortisone in ethanol (50 Ci/mmol, ARC, Inc.) was added to achieve final concentration of cortisone of 100 nM. The cells were incubated for 3-4 at 37 degrees Centigrade, 5% CO2. Negative controls were incubated without radioactive substrate and received the same amount of [^3H] cortisone at the end of the incubation. Formation of [^3H] cortisol was monitored by analyzing 25 microliters of each supernatant in scintillation proximity assay (SPA). (Solly, K.; Mundt, S. S.; Zokian, H. J.; Ding, G. J.; Hermanowski-Vosatka, A.; Strulovici, B.; Zheng, W. Assay Drug Dev. Technol. 2005, 3, 377-384),

T1 sequence (P28845 whole entry): as above

What is called IC50 is the concentration that inhibits the measured activity by half. For `O=C1OC(c2cccc(Cl)c2)CN1CC12CC3CC(CC(C3)C1)C2` (racemic) [Example 9, (±)-3((1-adamantyl)methyl)-5-(3-chlorophenyl)oxazolidin-2-one], the IC50 in test [1] was 0.05 to 1 µM.
On microsomal 11β-HSD1, `O=C1OC(c2ccc(Br)cc2)CN1C1C2CC3CC(C2)CC1C3` (racemic) [Example 29, (±)-5-(4-bromophenyl)-3-(2-adamantyl)oxazolidin-2-one] yielded a concentration for half-maximal inhibition (IC50) of less than 0.05 µM.
`CC(C)(C)C1CCN(C2C3CC4CC(C3)CC2C4)C(=O)N1` (racemic) [Example 31, (±)-4-tert-butyl-1-(2-adamantyl)tetrahydropyrimidin-2(1H)-one]: the IC50 (on microsomal 11β-HSD1; in test [2]) was less than 0.05 µM each time.
In the case of `O=C1OC(c2cccc(Br)c2)CN1C1C2CC3CC(C2)CC1C3` (racemic) [Example 34, (±)-5-(3-bromophenyl)-3-(2-adamantyl)oxazolidin-2-one], on microsomal 11β-HSD1, the IC50 was less than 0.05 µM.
The compound `CC(C)CC1(CO)CN(C2C3CC4CC(C3)CC2C4)C(=O)N1` (racemic) [Example 35, (±)-1-(2-adamantyl)-4-(hydroxymethyl)-4-isobutylimidazolidin-2-one] showed an IC50 on microsomal 11β-HSD1 of less than 0.05 µM.
Regarding `CC(C)CC1(CO)CN(CC23CC4CC(CC(C4)C2)C3)C(=O)N1` (racemic) [Example 36, (±)-1-(1-adamantylmethyl)-4-(hydroxymethyl)-4-isobutylimidazolidin-2-one], the IC50 at microsomal 11β-HSD1 was 0.05 to 1 µM.
For `O=C1OC(c2cccc(-c3ccccc3)c2)CN1C1C2CC3CC(C2)CC1C3` (racemic) [Example 37, (±)-5-(biphenyl-3-yl)-3-(2-adamantyl)oxazolidin-2-one], the IC50 against microsomal 11β-HSD1 was less than 0.05 µM; in test [2], 0.05 to 1 µM.
On microsomal 11β-HSD1, `O=C1OC(c2ccc(-c3ccccc3)cc2)CN1C1C2CC3CC(C2)CC1C3` (racemic) [Example 38, (±)-5-(biphenyl-4-yl)-3-(2-adamantyl)oxazolidin-2-one] yielded an IC50 of less than 0.05 µM.
`CC(C)C[C@H]1CN(C2C3CC4CC2CC(O)(C4)C3)C(=O)O1` (single isomer, unassigned) [Example 13A]: in test [1], the IC50 fell in the range of 0.05 to 1 µM.
With `CC(C)C[C@H]1CN(C2C3CC4CC2CC(O)(C4)C3)C(=O)O1` (single isomer, unassigned) [Example 13B], the IC50 in test [1] was more than 1 µM.
Take `O=C1OC(C2CCC(O)CC2)CN1CC12CC3CC(CC(C3)C1)C2` (single isomer, unassigned) [Example 22B, 3-(1-adamantylmethyl)-5-(4-hydroxycyclohexyl)oxazolidin-2-one]: the IC50 in test [1] lay in the range of 0.05 to 1 µM.
`O=C1O[C@@H](c2ccccc2)CN1CC12CC3CC(CC(C3)C1)C2` [Example 1, (S)-3-((1-adamantyl)methyl)-5-phenyloxazolidin-2-one]: the IC50 was 0.05 to 1 µM in test [2] and less than 0.05 µM in test [1].
With `CC(C)C[C@H]1CN(CC23CC4CC(CC(C4)C2)C3)C(=O)O1` [Example 2, (S)-3-((1-adamantyl)methyl)-5-isobutyloxazolidin-2-one], the IC50 in test [2] was 0.05 to 1 µM; in test [1], less than 0.05 µM.
In the case of `O=C1O[C@H](c2ccccc2)CN1CC12CC3CC(CC(C3)C1)C2` [Example 3, (R)-3((1-adamantyl)methyl)-5-phenyloxazolidin-2-one], in test [1], the half-maximal inhibitory concentration (IC50) was in the range of 0.05 to 1 µM.
As to `CC(C)C[C@H]1CN(C23CC4CC(CC(C4)C2)C3)C(=O)O1` [Example 4, (S)-3-(1-adamantyl)-5-isobutyloxazolidin-2-one], the IC50 in test [2] and in test [1] was less than 0.05 µM throughout.
For the compound `CC(C)C[C@H]1CN(C2C3CC4CC(C3)CC2C4)C(=O)O1` (stereo partly drawn) [Example 5, (S)-3-(2-adamantyl)-5-isobutyloxazolidin-2-one], the IC50 in test [2] and in test [1] was less than 0.05 µM each time.
Regarding `O=C1O[C@@H](Cc2ccccc2)CN1CC12CC3CC(CC(C3)C1)C2` [Example 6, (S)-5-benzyl-3-((1-adamantyl)methyl)oxazolidin-2-one], the IC50 in test [1] fell in the range of 0.05 to 1 µM.
Consider `O=C1O[C@@H](c2ccccc2Cl)CN1CC12CC3CC(CC(C3)C1)C2` [Example 7, (S)-3-((1-adamantyl)methyl)-5-(2-chlorophenyl)oxazolidin-2-one], for which the IC50 was 0.05 to 1 µM in test [2] and less than 0.05 µM in test [1].
For `CC(C)(C)[C@H]1CN(CC23CC4CC(CC(C4)C2)C3)C(=O)O1` [Example 8, (S)-3-((1-adamantyl)methyl)-5-(t-butyl)oxazolidin-2-one], the IC50 in test [2] and in test [1] was less than 0.05 µM each time.
Consider `CC[C@H]1CN(CC23CC4CC(CC(C4)C2)C3)C(=O)O1` [Example 10, (S)-3-((1-adamantyl)methyl)-5-ethyloxazolidin-2-one], for which the IC50 in test [1] was 0.05 to 1 µM.
`O=C1O[C@@H](c2ccccc2)CN1CC1C2CC3CC(C2)CC1C3` (stereo partly drawn) [Example 11, (S)-3((2-adamantyl)methyl)-5-phenyloxazolidin-2-one]: in test [1], the IC50 is 0.05 to 1 µM.
The same measure, in the same setting: next, `O=C1O[C@@H](c2ccccc2)CN1C1C2CC3CC(C2)CC1C3` (stereo partly drawn) [Example 14, (S)-3-(2-adamantyl)-5-phenyloxazolidin-2-one]: 0.05 to 1 µM; `O=C1O[C@H](c2ccccc2)CN1C1C2CC3CC(C2)CC1C3` (stereo partly drawn) [Example 15, (R)-3-(2-adamantyl)-5-phenyloxazolidin-2-one]: 0.05 to 1 µM.
Take `C[C@]1(c2ccccc2)CN(C2C3CC4CC(C3)CC2C4)C(=O)O1` (stereo partly drawn) [Example 16, (S)-3-(2-adamantyl)-5-methyl-5-phenyloxazolidin-2-one]: the 50% inhibitory concentration (IC50) in test [2] and in test [1] was less than 0.05 µM in each case.
With `O=C1OC(c2ccc(O)cc2)CN1CC12CC3CC(CC(C3)C1)C2` (centres unmarked) [Example 17, 3-(1-adamantylmethyl)-5-(4-hydroxyphenyl)oxazolidin-2-one], in test [1], the IC50 fell in the range of 0.05 to 1 µM.
`O=C1O[C@@H](C2CCCCC2)CN1CC12CC3CC(CC(C3)C1)C2` [Example 18, (S)-3-((1-adamantyl)methyl)-5-cyclohexyloxazolidin-2-one]: the values for the IC50 in test [2] and in test [1] were 0.05 to 1 µM and less than 0.05 µM, respectively.
For `O=C1O[C@@H](C2CCCCC2)CN1CC1C2CC3CC(C2)CC1C3` (stereo partly drawn) [Example 19, (S)-3-((2-adamantyl)methyl)-5-cyclohexyloxazolidin-2-one], the IC50 in test [1] was in the range of 0.05 to 1 µM.
Turning to `O=C1O[C@@H](C2CCCCC2)CN1C1C2CC3CC(C2)CC1C3` (stereo partly drawn) [Example 20, (S)-3-(2-adamantyl)-5-cyclohexyloxazolidin-2-one], the IC50 in test [2] and in test [1] was less than 0.05 µM each time.
As for `O=C1O[C@H](C2CCCCC2)CN1C1C2CC3CC(C2)CC1C3` (stereo partly drawn) [Example 21, (R)-3-(2-adamantyl)-5-cyclohexyloxazolidin-2-one], the IC50 in test [2] and in test [1] was less than 0.05 µM throughout.
As for `CC(C)CC1CCN(CC23CC4CC(CC(C4)C2)C3)C(=O)O1` (centres unmarked) [Example 23, 3((1-adamantyl)methyl)-6-isobutyl-1,3-oxazinan-2-one], in test [1], the IC50 lay in the range of 0.05 to 1 µM.
On to `O=C1N[C@H](CO)CN1CC12CC3CC(CC(C3)C1)C2` [Example 24, (S)-1-((1-adamantyl)methyl)-4-(hydroxymethyl)imidazolidin-2-one], for which, in test [1], the half-inhibitory concentration (IC50) fell in the range of 0.05 to 1 µM.
On to `C[C@@H]1[C@H](c2ccccc2)OC(=O)N1CC12CC3CC(CC(C3)C1)C2` [Example 25, (4R,5S)-3-((1-adamantyl)methyl)-4-methyl-5-phenyloxazolidin-2-one], for which the IC50 in test [2] and in test [1] was less than 0.05 µM throughout.
On to `CC1CCN(CC23CC4CC(CC(C4)C2)C3)C(=O)O1` (centres unmarked) [Example 26, 3-((1-adamantyl)methyl)-6-methyl-1,3-oxazinan-2-one], for which the IC50 in test [1] fell in the range of 0.05 to 1 µM.
Regarding `CC(C)(C)[C@H]1CN(C2C3CC4CC(C3)CC2C4)C(=O)N1` (stereo partly drawn) [Example 27, (S)-1-(2-adamantyl)-4-tert-butylimidazolidin-2-one], the IC50 in test [2] and in test [1] was less than 0.05 µM each time.
On to `O=C1N[C@@H](c2ccccc2)CN1C12CC3CC(CC(C3)C1)C2` [Example 30, (S)-1-(1-adamantyl)-4-phenylimidazolidin-2-one], for which the IC50 against microsomal 11β-HSD1 was less than 0.05 µM; in test [2] it was 0.05 to 1 µM.
